Where “and” joins values, the source holds several entries; their conditions need not be identical. Identical values can stand only once.
Columns and labels:
[1] = Oral bioavailability in rat of representative formulations of compound 552; type: in vivo
From the text: The pharmacokinetic behavior of compound of the invention can be ascertained by methods well known to those skilled in the art. (Wilkinson, G. R. “Pharmacokinetics: The Dynamics of Drug Absorption, Distribution, and Elimination” in Goodman & Gilman's The Pharmacological Basis of Therapeutics, Tenth Edition, Hardman, J. G.; Limbird, L. E., Eds., McGraw Hill, Columbus, Ohio, 2001, Chapter 1.) The following method was used to investigate the pharmacokinetic parameters (elimination half-life, total plasma clearance, etc.) for intravenous, subcutaneous and oral administration of compounds of the present invention.
Preparation of Representative Formulations of Compounds of the Invention
The pharmacokinetic parameters of representative formulations are determined through established methods known to those skilled-in the art as previously referenced in Method 3-I. Results with representative formulations for a representative compound of the present invention are shown below.

[2] = system: irinotecan-induced CID in dogs; assay: Dog model of chemotherapy-induced diarrhea; type: in vivo; details: FIG. 19
From the text: The objective of this study was to determine the efficacy of representative macrocyclic compounds of the present invention in chemotherapy-induced diarrhea (CID) following intravenous administration to the male beagle dog (Canis familiaris) for up to 32 days. Comparison with existing agents utilized for this condition, octreotide and loperamide, was an additional objective.
Twenty-one (21) male naïve Beagle dogs were randomly assigned to 7 groups and treated as follows:
The test compounds, controls and comparators were prepared at appropriate intervals. All formulations intended for administration to the test animals were stored refrigerated at 2-8° C. Irinotecan was obtained as a sterile solution for intravenous injection containing irinotecan hydrochloride trihydrate at a concentration of 20 mg/mL, ready to use. The irinotecan formulation for dosing the animals (0.5 mg/mL) in Group 1 (Cycles 1 and 2 only) was achieved by dilution of 20 mg/mL formulation with 5% dextrose for injection, USP. […]
A total of 21 males and 2 spare males were obtained from a commercial supplier (for example Marshall BioResources, North Rose, N.Y.) with ages 5 to 7 months old at onset of treatment and weights 6-9 kg at onset of treatment. […] Temperature and relative humidity were monitored continuously and recorded 4 times daily. […]

[3] = oral 8 mg/kg, 5% HP-β-CD in water
[4] = oral 8 mg/kg, Cremophor EL/Lysorbate 80/Soybean oil
[5] = oral 8 mg/kg, Oleic Acid/Labrafil
[6] = plasma, IV 2 mg/kg, 5% HP-β-CD in water
[7] = plasma, iv, 2 mg/kg, IV 2 mg/kg, 5% HP-β-CD in water
[8] = plasma, po, 8 mg/kg, oral 8 mg/kg, 5% HP-β-CD in water
[9] = plasma, po, 8 mg/kg, oral 8 mg/kg, Cremophor EL/Lysorbate 80/Soybean oil
[10] = plasma, po, 8 mg/kg, oral 8 mg/kg, Oleic Acid/Labrafil

CCC[C@@H]1NC(=O)[C@@H](C(C)C)NC(=O)[C@@H](Cc2ccc(O)c(Cl)c2)N[C@@H](C)COc2ccccc2CCCNC1=O [Compound 552]
F (%) (average) [1, 3]: 10 ± 5% | Tmax (min) [1, 3]: 5/15 | F (%) (individual results) ([1]; oral 8 mg/kg, 5% HP-β-CD in water, 8 mg/kg): 6% and 15% and 9% | F (%) (average) [1, 4]: 16 ± 1% | Tmax (min) [1, 4]: 15/30 | F (%) (individual results) ([1]; oral 8 mg/kg, Cremophor EL/Lysorbate 80/Soybean oil, 8 mg/kg): 18% and 15% and 16% | F (%) (average) [1, 5]: 14 ± 7% | Tmax (min) [1, 5]: 30/60 | F (%) (individual results) ([1]; oral 8 mg/kg, Oleic Acid/Labrafil, 8 mg/kg): 7% and 21% and 15% | Clearance [1, 6]: 55 ± 10 mL/min/kg | Tmax [1, 6]: 5 min | half-life [1, 6]: 45 ± 13 min | AUC(0-inf) [1, 7]: 616 ng·h/mL | Cmax [1, 7]: 1720 ± 299 ng/mL | AUC(0-inf) [1, 8]: 255 ng·h/mL | Cmax [1, 8]: 369 ± 97 ng/mL | AUC(0-inf) [1, 9]: 397 ng·h/mL | Cmax [1, 9]: 229 ± 162 ng/mL | AUC(0-inf) [1, 10]: 357 ng·h/mL | Cmax [1, 10]: 143 ± 77 ng/mL | efficacy in the treatment of irinotecan-induced CID ([2]; intravenous infusion, versus the current standard of care (octreotide, loperamide)): superior efficacy | onset and duration of action in irinotecan-induced CID ([2]; versus the current standard of care): quicker onset and longer duration of action
